# In PMC10771525 (Communications Biology, 2024):
# Target: HRH2 (Homo sapiens, UniProt P25021)
# Settings: reference agonist, HRH2, CHO-K1, Arrestin
# Chain of HRH2 (P25021 whole entry): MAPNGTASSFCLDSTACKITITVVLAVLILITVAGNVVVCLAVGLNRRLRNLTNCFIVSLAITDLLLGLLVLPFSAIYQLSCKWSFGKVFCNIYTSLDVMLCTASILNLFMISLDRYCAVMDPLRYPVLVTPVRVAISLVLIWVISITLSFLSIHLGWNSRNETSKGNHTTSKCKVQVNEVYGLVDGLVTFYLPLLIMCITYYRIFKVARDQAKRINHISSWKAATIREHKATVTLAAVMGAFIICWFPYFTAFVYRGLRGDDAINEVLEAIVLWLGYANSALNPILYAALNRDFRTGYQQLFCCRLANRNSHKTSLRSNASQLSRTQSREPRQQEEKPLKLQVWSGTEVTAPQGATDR
smiles,measurement,value
NCCc1c[nH]cn1 [Histamine],EC80,110 µM
